In brackets after ≈: the same amount, converted by molar mass.
Legend:
Format in all cases: functional
[1] = tested on: Escherichia coli; assay: Antimicrobial activity against Escherichia coli XL10/pSHV-31
[2] = tested on: Klebsiella pneumoniae; assay: Antimicrobial activity against Klebsiella pneumoniae KPN15-NL
[3] = tested on: Escherichia coli; assay: Antimicrobial activity against Escherichia coli XL10/vector

| Compound | MIC [1] | MIC [2] | MIC [3] |
| --- | --- | --- | --- |
| CC1(C)S[C@@H]2[C@H](NC(=O)[C@H](N)c3ccc(O)cc3)C(=O)N2[C@H]1C(=O)O [AMOXICILLIN] | > 128 µg/mL | > 128 µg/mL | 16 µg/mL (≈ 43.8 µM) |
| CC1(C)S[C@@H]2[C@H](NC(=O)[C@H](N)c3ccccc3)C(=O)N2[C@H]1C(=O)O [AMPICILLIN] | > 128 µg/mL | > 128 µg/mL | – |
| C[C@H]1[C@H](NC(=O)/C(=N\OC(C)(C)C(=O)O)c2csc(N)n2)C(=O)N1S(=O)(=O)O [AZTREONAM] | > 128 µg/mL | > 128 µg/mL | 0.12 µg/mL (≈ 0.276 µM) |
| CO/N=C(\C(=O)N[C@@H]1C(=O)N2C(C(=O)[O-])=C(C[N+]3(C)CCCC3)CS[C@H]12)c1csc(N)n1 [CEFEPIME] | 0.5 µg/mL (≈ 1.04 µM) | 1 µg/mL (≈ 2.08 µM) | ≤ 0.06 µg/mL |
| CO/N=C(\C(=O)N[C@@H]1C(=O)N2C(C(=O)O)=C(COC(C)=O)CS[C@H]12)c1csc(N)n1 [CEFOTAXIME] | 4 µg/mL (≈ 8.78 µM) | 8 µg/mL (≈ 17.6 µM) | ≤ 0.06 µg/mL |
| CO[C@@]1(NC(=O)Cc2cccs2)C(=O)N2C(C(=O)O)=C(COC(N)=O)CS[C@@H]21 [CEFOXITIN] | 1 µg/mL (≈ 2.34 µM) | 16 µg/mL (≈ 37.4 µM) | 1 µg/mL (≈ 2.34 µM) |
| CC(C)(O/N=C(\C(=O)N[C@@H]1C(=O)N2C(C(=O)[O-])=C(C[n+]3ccccc3)CS[C@H]12)c1csc(N)n1)C(=O)O [CEFTAZIDIME] | 32 µg/mL (≈ 58.5 µM) | 128 µg/mL (≈ 234 µM) | 0.12 µg/mL (≈ 0.22 µM) |
| C[C@@H](O)[C@H]1C(=O)N2C(C(=O)O)=C(S[C@@H]3CN[C@H](C(=O)Nc4cccc(C(=O)O)c4)C3)[C@H](C)[C@H]12 [ERTAPENEM] | ≤ 0.06 µg/mL | ≤ 0.06 µg/mL | – |
| C[C@@H](O)[C@H]1C(=O)N2C(C(=O)O)=C(SCCNC=N)C[C@H]12 [IMIPENEM ANHYDROUS] | ≤ 0.06 µg/mL | ≤ 0.06 µg/mL | – |
| CCN1CCN(C(=O)N[C@@H](C(=O)N[C@@H]2C(=O)N3[C@@H]2SC(C)(C)[C@@H]3C(=O)O)c2ccccc2)C(=O)C1=O [PIPERACILLIN] | 64 µg/mL (≈ 124 µM) | > 128 µg/mL | 1 µg/mL (≈ 1.93 µM) |

— ChEMBL document CHEMBL1142078, “Detection of a new SHV-type extended-spectrum beta-lactamase, SHV-31, in a Klebsiella pneumoniae strain causing a large nosocomial outbreak in The Netherlands” (2007)
